Measurements as given in patent US7932281B2, “Amine-based compound and use thereof” (Kureha Corporation, priority 2004, dated 2011).

How the values were obtained:
[1] = system: HIV-1IIIB infected MT-4 cells; assay: Anti-HIV activity, HIV-1IIIB infected MT-4 cells, MTT method (Test Example 1); type: cell-based; settings: Human immunodeficiency virus 1, MT4, 120 h, concentration required for inhibition of cell disorder due to HIV infection by 50%, MOI 0.01, 5 days
Procedure: Immediately after infection, HIV-1IIIB infected MT-4 cells (3.0×10^4/well, MOI (Multiplicity of infection): 0.01) were added to a 96-well microtiter plate together with the test compounds having different concentrations. The cells were cultured in a carbon dioxide incubator at 37° C. for 5 days, and the number of living cells was measured in accordance with the MTT (tetrazolium) method ([…], et al., J. of Virol. Method, 20, 309-321 […]). The antiviral activity is represented by the concentration required for inhibition of cell disorder due to HIV infection by 50% (EC50: 50% Effective Concentration) (μM), and the results are shown in Table 2.

[2] = target: T1, CXCR4 (Homo sapiens, UniProt P61073); assay: Inhibition of 125I-SDF-1α binding to receptors CXCR4 on MT-4 cells (Test Example 2); settings: binding-inhibition % at 0.01 μM, 2 hours under ice-cooling, read-out: Inhibition rate (%)
T1 construct: endogenous in cells; host or cells: MT-4 cells
Procedure: MT-4 cells (5×10^6/0.2 ml/well) were cultured on a 24-well microtiter plate. After the cells were incubated for 24 hours at 37° C. in a carbon dioxide gas incubator, a culture medium was replaced with a buffer solution (0.1% BSA-containing RPMI-1640). Together with a ligand ^125I-SDF-1α (specific activity: 2,200 Ci/mmol; available from Daiichi Pure Chemicals Co., Ltd. (Tokyo)), test materials with various concentrations were subjected to a binding reaction for 2 hours under ice-cooling. […] Then, a rate of inhibition of the binding between radioactive ligands and receptors CXCR4 by a test material was calculated (a binding-inhibition % at 0.01 μM).

[3] = system: SD mice; assay: Acute toxicity, single transvenous administration (Test Example 3); type: in vivo; settings: 6-week-old male SD mice, 2.5 mg/kg transvenously once in physiological saline
Procedure: The aforementioned compound was examined for acute toxicity. Specifically, 6-week-old SD mice (male) were divided into several groups (2 to 3 mice in each group). Subsequently, each of the compounds of Examples was dissolved in a physiological saline solution, and the solution was transvenously administered to the mice (dose: 2.5 mg/kg) once. Then, the number of dead mice was counted.

T1 sequence (P61073 whole entry): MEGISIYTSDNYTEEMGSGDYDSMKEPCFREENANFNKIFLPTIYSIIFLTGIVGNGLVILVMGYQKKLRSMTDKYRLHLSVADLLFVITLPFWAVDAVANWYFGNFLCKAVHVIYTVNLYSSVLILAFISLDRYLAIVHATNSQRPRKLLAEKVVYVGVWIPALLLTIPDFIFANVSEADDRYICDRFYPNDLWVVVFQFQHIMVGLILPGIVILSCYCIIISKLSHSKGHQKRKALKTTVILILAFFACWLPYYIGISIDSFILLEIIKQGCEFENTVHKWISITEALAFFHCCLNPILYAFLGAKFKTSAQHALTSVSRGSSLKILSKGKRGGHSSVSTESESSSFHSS

Row | Compound | EC50 [1] | inhibition at 0.01 µM [2] | Dead mice/test mice [3]
1 | CCCN(CCC)CCCCN(Cc1ccc(CN(Cc2ncc[nH]2)Cc2nccn2C)cc1)c1ccccc1 [Compound No. 24, N-(4-{[(1H-imidazol-2-ylmethyl)-(1-methyl-1H-imidazol-2-ylmethyl)-amino]-methyl}-benzyl)-N-phenyl-N′,N′-dipropyl-butane-1,4-diamine] | 95 nM | 50.1% | 0/3
2 | CCCN(CCC)CCCCN(C)C(=O)Nc1ccc(CN(Cc2ncc[nH]2)Cc2nccn2C)cc1 [Compound No. 26, 1-(4-dipropylamino-butyl)-3-(4-{[(1H-imidazol-2-ylmethyl)-(1-methyl-1H-imidazol-2-ylmethyl)-amino]-methyl}-phenyl)-1-methyl-urea] | 73 nM | 57.3% | 0/3
3 | CCCN(CCC)CCCCN(C)C(=O)N(C)c1ccc(CN(Cc2ncc[nH]2)Cc2nccn2C)cc1 [Compound No. 27, 1-(4-dipropylamino-butyl)-3-(4-{[(1H-imidazol-2-ylmethyl)-(1-methyl-1H-imidazol-2-ylmethyl)-amino]-methyl}-phenyl)-1,3-dimethyl-urea] | 230 nM | 43.4% | 0/3
4 | CCCN(CCC)Cc1ccc(-c2nc3ccc(CN(Cc4ncc[nH]4)Cc4nccn4C)cc3n2C)cc1 [Compound No. 29, [4-(6-{[(1H-imidazol-2-ylmethyl)-(1-methyl-1H-imidazol-2-ylmethyl)-amino]-methyl}-1-methyl-1H-benzimidazol-2-yl)-benzyl]-dipropyl-amine] | 61 nM | 71.2% | 0/3
5 | CCCN(CCC)CCCCNC(=O)c1cn2cc(CN(Cc3ncc[nH]3)Cc3nccn3C)ccc2n1 [Compound No. 30] | 92 nM | 46% | 0/3
6 | CCCN(CCC)CCCCN(Cc1ccc(CN(Cc2ncc[nH]2)Cc2nccn2C)cc1)CC(F)(F)F [Compound No. 31, N-(4-{[(1H-imidazol-2-ylmethyl)-(1-methyl-1H-imidazol-2-ylmethyl)-amino]-methyl}-benzyl)-N′,N′-dipropyl-N-(2,2,2-trifluoro-ethyl)-butane-1,4-diamine] | 74 nM | 47.3% | 0/3
7 | CCCN(CCC)CCCCN(CCC#N)Cc1ccc(CN(Cc2ncc[nH]2)Cc2nccn2C)cc1 [Compound No. 33, 3-[(4-dipropylamino-butyl)-(4-{[(1H-imidazol-2-ylmethyl)-(1-methyl-1H-imidazol-2-ylmethyl)-amino]-methyl}-benzyl)-amino]-propionitrile] | 3 nM | 85.2% | 0/3
8 | CCCN(CCC)CCCCN(CCC(=O)OC)Cc1ccc(CN(Cc2ncc[nH]2)Cc2nccn2C)cc1 [Compound No. 34, 3-[(4-dipropylamino-butyl)-(4-{[(1H-imidazol-2-ylmethyl)-(1-methyl-1H-imidazol-2-ylmethyl)-amino]-methyl}-benzyl)-amino]-propionic acid methyl ester] | 3 nM | 85.5% | 0/3
9 | CCCN(CCC)CCCCNC(=S)Nc1ccc(CN(Cc2ncc[nH]2)Cc2nccn2C)cc1 [Compound No. 35, 1-(4-dipropylamino-butyl)-3-(4-{[(1H-imidazol-2-ylmethyl)-(1-methyl-1H-imidazol-2-ylmethyl)-amino]-methyl}-phenyl)-thiourea] | 7 nM | 86.3% | 0/3
10 | CCCN(CCC)CCCc1cccc(-c2ccc(CN(Cc3ncc[nH]3)Cc3nccn3C)cc2)n1 [Compound No. 36, {3-[6-(4-{[(1H-imidazol-2-ylmethyl)-(1-methyl-1H-imidazol-2-ylmethyl)-amino]-methyl}-phenyl)-pyridin-2-yl]-propyl}-dipropyl-amine] | 656 nM | 58% | 0/3
11 | CCCN(CCC)CCCCN(Cc1ccc(CN(Cc2ncc[nH]2)Cc2nccn2C)cc1)C(=O)C(F)(F)F [Compound No. 37, N-(4-dipropylamino-butyl)-2,2,2-trifluoro-N-(4-{[(1H-imidazol-2-ylmethyl)-(1-methyl-1H-imidazol-2-ylmethyl)-amino]-methyl}-benzyl)-acetamide] | 3 nM | 92.3% | 0/3
12 | CN(CCCCN1CCCCC1)Cc1ccc(CN(Cc2ncc[nH]2)Cc2nccn2C)cc1 [Compound No. 44, (4-{[(1H-imidazol-2-ylmethyl)-(1-methyl-1H-imidazol-2-ylmethyl)-amino]-methyl}-benzyl)-methyl-(4-piperidin-1-ylbutyl)amine] | 2 nM | 81.6% | 0/3
13 | CCCN(CCC)CCCc1nc2ccc(CN(Cc3ncc[nH]3)Cc3nccn3C)cc2n1CCC [Compound No. 46, [3-(6-{[(1H-imidazol-2-ylmethyl)-(1-methyl-1H-imidazol-2-ylmethyl)-amino]-methyl}-1-propyl-1H-benzimidazol-2-yl)-propyl]-dipropyl-amine] | 17 nM | 74.6% | 0/3
14 | CCCN(CCC)CCCCc1nc2ccc(CN(Cc3ncc[nH]3)Cc3nccn3C)cc2n1C(C)C [Compound No. 47, [4-(6-{[(1H-imidazol-2-ylmethyl)-(1-methyl-1H-imidazol-2-ylmethyl)-amino]-methyl}-1-isopropyl-1H-benzimidazol-2-yl)-butyl]-dipropyl-amine] | 2 nM | 86.2% | 0/3
15 | CCCN(CCC)CCCCN(Cc1ccc(CN(Cc2ncc[nH]2)C2CCCc3cccnc32)cc1)S(C)(=O)=O (stereo not drawn) [Compound No. 50, N-(4-dipropylamino-butyl)-N-(4-{[(1H-imidazol-2-ylmethyl)-(5,6,7,8-tetrahydro-quinolin-8-yl)-amino]-methyl}-benzyl)-methanesulfonamide] | 401 nM | 53.4% | 0/3
16 | CCCN(CCC)CCCCN(CCC(=O)O)Cc1ccc(CN(Cc2ncc[nH]2)Cc2nccn2C)cc1 [Compound No. 51, 3-[(4-dipropylamino-butyl)-(4-{[(1H-imidazol-2-ylmethyl)-(1-methyl-1H-imidazol-2-ylmethyl)-amino]-methyl}-benzyl)-amino]-propionic acid] | 2 nM | 85.8% | 0/3
17 | CCCN(CCC)CCCCN(CC#N)Cc1ccc(CN(Cc2ncc[nH]2)Cc2nccn2C)cc1 [Compound No. 82, [(4-dipropylamino-butyl)-(4-[[(1H-imidazol-2-ylmethyl)-(1-methyl-1H-imidazol-2-ylmethyl)-amino]-methyl]-benzyl)-amino]-acetonitrile] | 3 nM | 82.3% | 0/3
18 | CCCN(CCC)CCCCN(CC(=O)OC)Cc1ccc(CN(Cc2ncc[nH]2)Cc2nccn2C)cc1 [Compound No. 83, [(4-dipropylamino-butyl)-(4-[[(1H-imidazol-2-ylmethyl)-(1-methyl-1H-imidazol-2-ylmethyl)-amino]-methyl]-benzyl)-amino]-acetic acid methyl ester] | 3 nM | 79.7% | 0/3
